The target of this assay is T1, Full-length glucokinase (beta cell isoform) (Homo sapiens, UniProt P35557).
T1 construct: Full-length glucokinase (beta cell isoform) was His-tagged at N-terminus; His tag (N); made in house
T1 sequence (P35557 1-465): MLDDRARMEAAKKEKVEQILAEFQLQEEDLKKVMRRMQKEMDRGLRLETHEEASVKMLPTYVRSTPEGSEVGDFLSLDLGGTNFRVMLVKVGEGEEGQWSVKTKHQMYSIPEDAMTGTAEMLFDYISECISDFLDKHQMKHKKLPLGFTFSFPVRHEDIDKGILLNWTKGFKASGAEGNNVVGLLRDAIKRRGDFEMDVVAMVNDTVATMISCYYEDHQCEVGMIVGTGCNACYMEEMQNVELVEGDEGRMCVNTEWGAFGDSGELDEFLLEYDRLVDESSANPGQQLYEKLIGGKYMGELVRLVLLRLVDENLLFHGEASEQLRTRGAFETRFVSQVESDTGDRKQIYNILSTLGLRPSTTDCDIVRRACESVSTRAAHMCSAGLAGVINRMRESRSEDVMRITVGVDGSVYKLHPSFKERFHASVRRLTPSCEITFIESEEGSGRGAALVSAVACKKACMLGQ
Put plainly: Glucokinase biochemical assay (PK/LDH-coupled, NADH depletion at 340 nm): % activation, EC50, % max activation. The settings on record: for activation at 10 µM: read-out: % Activation at 10 uM; for EC50: GK activation; for Emax: read-out: % Max Activation. The essentials:
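Activation expressed as (Va/Vo−1)×100, where initial rates with and without compound come from NADH depletion at 340 nm over 200–900 s. Enzyme is His-tagged human beta-cell GK, full length, run at room temperature in HEPES buffer with 1 mM ATP and 5 mM glucose. DMSO 1%.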

Setting [1] is: 10 uM compound, 5 mM glucose, % Activation=(Va/Vo−1)×100.
The mark [2] stands for this setting: 5 mM glucose, fitted maximum activation.

Like-named read-outs stand apart in the source and are kept apart here.

Usually EC50 stands for the midpoint of the concentration-response curve. Consider `CN(C)C(=O)c1ccc(Oc2cc(C(=O)Nc3ccn(C)n3)cc3c2CC(C)(CO)O3)cc1F` (stereo not drawn) [Example 229, 4-(4-Dimethylcarbamoyl-3-fluoro-phenoxy)-2-hydroxymethyl-2-methyl-2,3-dihydro-benzofuran-6-carboxylic acid (1-methyl-1H-pyrazol-3-yl)-amide], for which the activation at 10 µM under setting [1] was 101%. Also, under “5 mM glucose, read-out: EC50”, the EC50 was determined as 0.12 µM. Further, under setting [2], the Emax turned out to be 97%.
In the same order, the values of `Cc1ccc(NC(=O)c2cc(Oc3ccc(S(C)(=O)=O)cc3)c3c(c2)OC(C)(CO)C3)nc1` (stereo not drawn) [Example 230, 2-Hydroxymethyl-4-(4-methanesulfonyl-phenoxy)-2-methyl-2,3-dihydro-benzofuran-6-carboxylic acid (5-methyl-pyridin-2-yl)-amide] are 91.8%, 0.33 µM and 95%.
For `COCC1(C)Cc2c(Oc3ccc(S(C)(=O)=O)cc3)cc(C(=O)Nc3ccc(C)cn3)cc2O1` (stereo not drawn) [Example 231, 4-(4-Methanesulfonyl-phenoxy)-2-methoxymethyl-2-methyl-2,3-dihydro-benzofuran-6-carboxylic acid (5-methyl-pyridin-2-yl)-amide], the activation at 10 µM under setting [1] worked out at 118%. Further, the EC50 (5 mM glucose, read-out: EC50) was 0.1 µM. Moreover, under setting [2], the Emax came out at 106%.
On the same counts, the results for `Cn1ccc(NC(=O)c2cc(Oc3ccc(S(C)(=O)=O)c(F)c3)c3c(c2)OC(C)(CO)C3)n1` (stereo not drawn) [Example 232, 4-(3-Fluoro-4-methanesulfonyl-phenoxy)-2-hydroxymethyl-2-methyl-2,3-dihydro-benzofuran-6-carboxylic acid (1-methyl-1H-pyrazol-3-yl)-amide] are 188%, 0.39 µM and 184%.
On the same counts, the results for `Cc1ccc(NC(=O)c2cc(Oc3ccc(S(C)(=O)=O)c(F)c3)c3c(c2)OC(C)(CO)C3)nc1` (stereo not drawn) [Example 233, 4-(3-Fluoro-4-methanesulfonyl-phenoxy)-2-hydroxymethyl-2-methyl-2,3-dihydro-benzofuran-6-carboxylic acid (5-methyl-pyridin-2-yl)-amide] are 201%, 0.064 µM and 165%.
On the same counts, the results for `COCC1(C)Cc2c(Oc3ccc(C(=O)N(C)C)c(F)c3)cc(C(=O)Nc3ccn(C)n3)cc2O1` (stereo not drawn) [Example 234, 4-(4-Dimethylcarbamoyl-3-fluoro-phenoxy)-2-methoxymethyl-2-methyl-2,3-dihydro-benzofuran-6-carboxylic acid (1-methyl-1H-pyrazol-3-yl)-amide] are 121%, 0.075 µM and 112%.
Take `Cn1ccc(NC(=O)c2cc(Oc3cc(F)ccc3S(C)(=O)=O)c3c(c2)OC(C)(CO)C3)n1` (stereo not drawn) [Example 235, 4-(5-Fluoro-2-methanesulfonyl-phenoxy)-2-hydroxymethyl-2-methyl-2,3-dihydro-benzofuran-6-carboxylic acid (1-methyl-1H-pyrazol-3-yl)-amide]: the activation at 10 µM under setting [1] was 69.2%. Also, the EC50 (5 mM glucose, read-out: EC50) was over 10 µM.
`Cc1ccc(NC(=O)c2cc(Oc3cc(F)ccc3S(C)(=O)=O)c3c(c2)OC(C)(CO)C3)nc1` (stereo not drawn) [Example 236, 4-(5-Fluoro-2-methanesulfonyl-phenoxy)-2-hydroxymethyl-2-methyl-2,3-dihydro-benzofuran-6-carboxylic acid (5-methyl-pyridin-2-yl)-amide]: the activation at 10 µM under setting [1] came out at 55.6%. The concentration for a half-maximal effect (EC50) (5 mM glucose, read-out: EC50) came out at 2.7 µM. Further, the Emax under setting [2] was 66%.
In the same order, the values of `COCC1(C)Cc2c(Oc3ccc(S(C)(=O)=O)c(F)c3)cc(C(=O)Nc3ccn(C)n3)cc2O1` (stereo not drawn) [Example 237, 4-(3-Fluoro-4-methanesulfonyl-phenoxy)-2-methoxymethyl-2-methyl-2,3-dihydro-benzofuran-6-carboxylic acid (1-methyl-1H-pyrazol-3-yl)-amide] are 189%, 0.098 µM and 157%.
`COCC1(C)Cc2c(Oc3cc(F)ccc3S(C)(=O)=O)cc(C(=O)Nc3ccn(C)n3)cc2O1` (stereo not drawn) [Example 238, 4-(5-Fluoro-2-methanesulfonyl-phenoxy)-2-methoxymethyl-2-methyl-2,3-dihydro-benzofuran-6-carboxylic acid (1-methyl-1H-pyrazol-3-yl)-amide]: the activation at 10 µM under setting [1] came to 89.8%. The EC50 (5 mM glucose, read-out: EC50) is over 10 µM.
Take `Cc1ccc(NC(=O)c2cc(Oc3ccc(C(=O)N(C)C)c(F)c3)c3c(c2)OC(C)(CO)C3)nc1` (stereo not drawn) [Example 239, 4-(4-Dimethylcarbamoyl-3-fluoro-phenoxy)-2-hydroxymethyl-2-methyl-2,3-dihydro-benzofuran-6-carboxylic acid (5-methyl-pyridin-2-yl)-amide]: the activation at 10 µM under setting [1] came out at 32.1%. Further, the concentration for a half-maximal effect (EC50) (5 mM glucose, read-out: EC50) was 0.02 µM. Also, the Emax under setting [2] turned out to be 42%.
For the compound `Cc1ccc(NC(=O)c2cc(Oc3ccc(C(=O)N4CCC4)c(F)c3)c3c(c2)OC(C)(CO)C3)nc1` (stereo not drawn) [Example 240, 4-[4-(Azetidine-1-carbonyl)-3-fluoro-phenoxy]-2-hydroxymethyl-2-methyl-2,3-dihydro-benzofuran-6-carboxylic acid (5-methyl-pyridin-2-yl)-amide], the activation at 10 µM amounted to 83% and the Emax amounted to 94%. This compound also came in with an EC50 (EC50 (uM), 5 mM glucose) of 0.021 µM.
Take `Cn1ccc(NC(=O)c2cc(Oc3ccc(C(=O)N4CCC4)c(F)c3)c3c(c2)OC(C)(CO)C3)n1` (stereo not drawn) [Example 241, 4-[4-(Azetidine-1-carbonyl)-3-fluoro-phenoxy]-2-hydroxymethyl-2-methyl-2,3-dihydro-benzofuran-6-carboxylic acid (1-methyl-1H-pyrazol-3-yl)-amide]: the activation at 10 µM under setting [1] amounted to 127%. In addition, where the note is “5 mM glucose, read-out: EC50”, the EC50 was determined as 0.058 µM. For the same compound, the Emax under setting [2] was found to be 135%.
On the same counts, the results for `COCC1(C)Cc2c(Oc3ccc(C(=O)N4CCC4)c(F)c3)cc(C(=O)Nc3ccn(C)n3)cc2O1` (stereo not drawn) [Example 242, 4-[4-(Azetidine-1-carbonyl)-3-fluoro-phenoxy]-2-methoxymethyl-2-methyl-2,3-dihydro-benzofuran-6-carboxylic acid (1-methyl-1H-pyrazol-3-yl)-amide] are 140%, 0.063 µM and 144%.
With `Cn1ccc(NC(=O)c2cc(Oc3ccc(S(=O)(=O)C4CC4)cc3)c3c(c2)OC(C)(CO)C3)n1` (stereo not drawn) [Example 245, 4-(4-Cyclopropanesulfonyl-phenoxy)-2-hydroxymethyl-2-methyl-2,3-dihydro-benzofuran-6-carboxylic acid (1-methyl-1H-pyrazol-3-yl)-amide], the activation at 10 µM under setting [1] amounted to 196%. Further, under “5 mM glucose, read-out: EC50”, the EC50 turned out to be 0.13 µM. Further, under setting [2], the Emax came out at 236%.
In the case of `Cn1ncc(NC(=O)c2cc(Oc3ccc(S(=O)(=O)C4CC4)cc3)c3c(c2)OC(C)(CO)C3)n1` (stereo not drawn) [Example 246, 4-(4-Cyclopropanesulfonyl-phenoxy)-2-hydroxymethyl-2-methyl-2,3-dihydro-benzofuran-6-carboxylic acid (2-methyl-2H-[1,2,3]triazol-4-yl)-amide], under setting [1], the activation at 10 µM amounted to 222%. For the setting “5 mM glucose, read-out: EC50”, the EC50 worked out at 0.16 µM. For the same compound, under setting [2], the Emax came out at 261%.
In the same order, the values of `Cn1ccc(NC(=O)c2cc(Oc3ccc(S(C)(=O)=O)cc3)c3c(c2)OC(C)(CF)C3)n1` (stereo not drawn) [Example 251, 2-Fluoromethyl-4-(4-methanesulfonyl-phenoxy)-2-methyl-2,3-dihydro-benzofuran-6-carboxylic acid (1-methyl-1H-pyrazol-3-yl)-amide] are 141%, 0.43 µM and 169%.
Take `Cc1ccc(NC(=O)c2cc(Oc3ccc(S(C)(=O)=O)cc3)c3cc(C)oc3c2)nc1` [Example 252, 2-Methyl-N-(5-methylpyridin-2-yl)-4-(4-(methylsulfonyl)-phenoxy)-benzofuran-6-carboxamide]: the activation at 10 µM under setting [1] was 108%. The EC50 (5 mM glucose, read-out: EC50) came to 0.778 µM. In addition, the Emax under setting [2] stood at 107%.
For the compound `Cc1cc2c(Oc3ccc(S(C)(=O)=O)cc3)cc(C(=O)Nc3ccc(C(F)(F)F)cn3)cc2o1` [Example 253, 2-Methyl-4-(4-(methylsulfonyl)phenoxy)-N-(5-(trifluoromethyl)-pyridin-2-yl)benzofuran-6-carboxamide], the activation at 10 µM under setting [1] was 32.1%.
For the compound `Cc1cc2c(Oc3ccc(S(C)(=O)=O)cc3)cc(C(=O)Nc3ccc4c(n3)CCC4)cc2o1` [Example 254, N-(6,7-Dihydro-5H-cyclopenta[b]pyridin-2-yl)-2-methyl-4-(4-(methylsulfonyl)-phenoxy)benzofuran-6-carboxamide], under setting [1], the activation at 10 µM stood at 53.3%. In addition, the EC50 (5 mM glucose, read-out: EC50) is 3.4 µM. The Emax under setting [2] came to 71%.
Regarding `Cc1cc(NC(=O)c2cc(Oc3ccc(S(C)(=O)=O)cc3)c3cc(C)oc3c2)no1` [Example 255, 2-Methyl-N-(5-methylisoxazol-3-yl)-4-(4-(methylsulfonyl)-phenoxy)-benzofuran-6-carboxamide], the activation at 10 µM under setting [1] came to 18.8%.

Source of the values: US8119624B2, “Fused phenyl amido heterocyclic compounds” (Pfizer Inc., priority 2006, dated 2012).
